BindingDB's records for doi:10.7270/Q2DZ06QW (Columbia University Molecular Screening Center, 2008)

Target: T1, Bifunctional epoxide hydrolase 2 (Homo sapiens, UniProt P34913)
T1 sequence (P34913 whole entry): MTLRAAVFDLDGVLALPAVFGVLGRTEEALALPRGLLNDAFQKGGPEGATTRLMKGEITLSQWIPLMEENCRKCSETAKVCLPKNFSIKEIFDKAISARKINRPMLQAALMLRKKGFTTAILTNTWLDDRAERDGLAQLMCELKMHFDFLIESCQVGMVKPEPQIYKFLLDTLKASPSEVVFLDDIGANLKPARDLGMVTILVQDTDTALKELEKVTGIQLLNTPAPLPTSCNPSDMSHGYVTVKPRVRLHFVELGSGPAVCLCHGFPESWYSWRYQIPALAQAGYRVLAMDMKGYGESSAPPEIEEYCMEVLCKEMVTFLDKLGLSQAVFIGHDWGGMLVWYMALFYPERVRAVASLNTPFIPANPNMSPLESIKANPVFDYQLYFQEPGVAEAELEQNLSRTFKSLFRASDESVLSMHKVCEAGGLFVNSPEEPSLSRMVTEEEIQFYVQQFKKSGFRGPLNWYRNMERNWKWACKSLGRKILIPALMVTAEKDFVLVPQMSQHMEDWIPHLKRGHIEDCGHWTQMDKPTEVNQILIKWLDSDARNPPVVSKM
Assay: sEH inhibitor concentration-response potency, dose response, biochemical, human sEH, fluorescence, Infinite200 (AID 1026)

| Structure (SMILES) | IC50 |
| --- | --- |
| CC(C)CN(C#N)c1nc(N2CCOCC2)nc(N2CCOCC2)n1 [(4,6-dimorpholin-4-yl-1,3,5-triazin-2-yl)-(2-methylpropyl)cyanamide] | > 10000 nM |
| c1ccc(CCN=C2NCCCS2)cc1 [5,6-dihydro-4H-1,3-thiazin-2-yl(phenethyl)amine] | > 10000 nM |
| Clc1ccc(CON=CNc2ncnc3sccc23)cc1 [N-[(4-chlorophenyl)methoxy]-N'-thieno[2,3-d]pyrimidin-4-yl-methanimidamide] | > 10000 nM |
| Cc1cc(Cl)c(OCCCNCc2ccccc2)c(Br)c1 [3-(2-bromanyl-6-chloranyl-4-methyl-phenoxy)-N-(phenylmethyl)propan-1-amine;ethanedioic acid] | > 10000 nM |
| O=C1Nc2ccc(S(=O)(=O)N3CCOCC3)c3cccc1c23 [6-(4-morpholinylsulfonyl)-1H-benzo[cd]indol-2-one] | > 10000 nM |
| COC(=O)c1ccc(S(=O)(=O)N2C3CCC2CC(NC(=O)NC2CCCCC2)C3)cc1 (stereo not drawn) [4-[3-(3-Cyclohexyl-ureido)-8-aza-bicyclo[3.2.1]octane-8-sulfonyl]-benzoic acid methyl ester] | 8.9 nM |
| Cc1ccccc1NC(=S)NCCC(c1ccccc1)c1ccccc1 [1-(3,3-diphenylpropyl)-3-(2-methylphenyl)thiourea] | > 10000 nM |
| COc1ccc(S(=O)(=O)N2C3CCC2CC(NC(=O)NC2CCCCC2)C3)cc1 (stereo not drawn) [1-Cyclohexyl-3-[8-(4-methoxy-benzenesulfonyl)-8-aza-bicyclo[3.2.1]oct-3-yl]-urea] | 39.4 nM |
| CCOC(=O)C(O)(c1ccc(NC(=O)NC2CCCCC2)cc1)C(F)(F)F (stereo not drawn) [2-[4-(cyclohexylcarbamoylamino)phenyl]-3,3,3-trifluoro-2-hydroxy-propionic acid ethyl ester] | 121 nM |

Other lines, results leading:

| IC50 | Structure (SMILES) |
| --- | --- |
| 19.8 nM | Cc1cc(NS(=O)(=O)c2ccc(Nc3nc(-c4sc(NC(=O)c5ccccc5)nc4C)cs3)cc2)no1 [MLS000523248] |
| > 10000 nM | CCOC(=O)CSc1ccc(-c2nc3cc(C)c(C)cc3[nH]2)cn1 [SMR000122535] |
| 82.8 nM | CCOC(=O)c1sc(NC(=O)c2ccc(Cl)s2)cc1C [5-[(5-chlorothiophene-2-carbonyl)amino]-3-methyl-thiophene-2-carboxylic acid ethyl ester] |
| > 10000 nM | CC(C)(C)c1ccc(S(=O)(=O)N2CCC(c3nc4cc(Cl)ccc4[nH]3)CC2)cc1 [2-[1-(4-tert-butylphenyl)sulfonylpiperidin-4-yl]-6-chloranyl-1H-benzimidazole] |
| > 10000 nM | COc1ccc(Cn2ccc(=O)c(Cc3c(Cl)cccc3Cl)c2C)cc1 [3-(2,6-dichlorobenzyl)-1-(4-methoxybenzyl)-2-methyl-4(1H)-pyridinone] |
| 24.4 nM | O=C(CCCOc1ccc(Cl)cc1Cl)NN=CC1CCCCC1 |
| > 10000 nM | CCN(CC)S(=O)(=O)c1ccc(N=C2NS(=O)(=O)c3ccccc32)cc1 [4-(1,1-Dioxo-1H-1lambda*6*-benzo[d]isothiazol-3-ylamino)-N,N-diethyl-benzenesulfonamide] |
| 70.5 nM | Cc1ccc(NC(=O)NC2CCCCC2)cc1Cl [1-(3-chloranyl-4-methyl-phenyl)-3-cyclohexyl-urea] |
| 63.1 nM | CCOC(=O)c1sc(NC(=O)Nc2ccc(Cl)cc2)cc1C [5-[(4-chlorophenyl)carbamoylamino]-3-methyl-thiophene-2-carboxylic acid ethyl ester] |
